Among the data in patent US20250195521A1 (Revolution Medicines, Inc., priority 2020, published 2025) are IC50 values, retold here.

The subject of assay [1] is NCI-H358 cells (K-Ras G12C). As to the kind of experiment: CellTiter-Glo cell viability, NCI-H358. It counts as cell-based, human. The conditions noted are these: Homo sapiens, NCI-H358, 120 h, read-out: H358 Cell Viability IC50. A digest of the protocol: (§1)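 Compounds dispensed directly onto seeded cells; on day 5 plates equilibrated ~30 min to room temperature and luminescence read. Signal normalized to DMSO average (%) and fitted by four-parameter logistic.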
Background: Cellular ATP, detected with luciferase, serves as a proxy for viable cell number.

Assay [2] relates to Capan-1 cells (K-Ras G12V). The assay is described as follows: CellTiter-Glo cell viability, Capan-1. It counts as cell-based, human. As to conditions: Homo sapiens, CAPAN-1, 120 h, read-out: Capan-1 Cell Viability IC50. A digest of the protocol:
as §1

The target of the next assay is KRAS G12C (Homo sapiens (Human), UniProt P01116+P62937, G12C). As to the kind of experiment: Ras-Raf disruption/FRET/MOA assay (BRAF RBD, Cyclophilin A). It counts as biochemical. As to conditions: read-out: KRAS G12C FRET IC50. A digest of the protocol: (§2)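 His6-K-Ras-GMPPNP (12.5 nM), GST-BRAF RBD (50 nM) and tagless Cyclophilin A (25 μM) were combined in 25 mM HEPES pH 7.3 with 100 mM NaCl, 5 mM MgCl2, 0.1% BSA and 0.002% Tween20, with compound as a 10-point 3-fold series from 30 μM final, then incubated 3 h at 25° C.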
KRAS G12C, sequence (P01116-2 other isoform, or with tags, fused parts or gaps G12C): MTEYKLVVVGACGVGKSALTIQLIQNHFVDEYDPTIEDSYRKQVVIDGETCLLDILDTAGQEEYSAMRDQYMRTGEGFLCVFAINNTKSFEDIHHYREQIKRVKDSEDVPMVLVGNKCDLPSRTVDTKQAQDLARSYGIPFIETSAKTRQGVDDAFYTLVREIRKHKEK
KRAS G12C, sequence (P62937 whole entry): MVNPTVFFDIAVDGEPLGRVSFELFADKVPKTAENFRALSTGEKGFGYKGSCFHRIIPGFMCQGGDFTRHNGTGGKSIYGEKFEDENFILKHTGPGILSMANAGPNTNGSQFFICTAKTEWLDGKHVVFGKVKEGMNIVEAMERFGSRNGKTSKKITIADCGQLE

A further assay has as its target KRAS G12D (Homo sapiens (Human), UniProt P01116+P62937, G12D). The assay is described as above. As to conditions: read-out: KRAS G12D FRET IC50. It counts as biochemical. In a few lines: as §2
The target in another assay is KRAS G12S (Homo sapiens (Human), UniProt P01116+P62937, G12S). The assay is described as above. It counts as biochemical. As to conditions: read-out: KRAS G12S FRET IC50. A digest of the protocol:
as §2

The next assay concerns the target KRAS G12V (Homo sapiens (Human), UniProt P01116+P62937, G12V). Described as above. It counts as biochemical. The conditions noted are these: read-out: KRAS G12V FRET IC50. A digest of the protocol:
as §2

The target of another assay is KRAS G13C (Homo sapiens (Human), UniProt P01116+P62937, G13C). The description is as above. It counts as biochemical. As to conditions: read-out: KRAS G13C FRET IC50. In a few lines:
as §2

The target of another assay is KRAS G13D (Homo sapiens (Human), UniProt P01116+P62937, G13D). The assay is described as above. As to conditions: read-out: KRAS G13D FRET data IC50. It counts as biochemical. In a few lines: as §2
KRAS G13D, sequence (P01116 other isoform, or with tags, fused parts or gaps G13D): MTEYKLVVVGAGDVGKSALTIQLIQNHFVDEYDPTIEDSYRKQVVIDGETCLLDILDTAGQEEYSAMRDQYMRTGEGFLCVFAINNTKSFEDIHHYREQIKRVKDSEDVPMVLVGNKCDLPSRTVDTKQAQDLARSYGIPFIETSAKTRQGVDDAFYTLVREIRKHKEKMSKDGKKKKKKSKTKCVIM
KRAS G13D, sequence (P62937 whole entry): as the sequence (P62937 whole entry) above
The target in the next assay is KRAS WT (Homo sapiens (Human), UniProt P01116+P62937). The assay is described as above. The conditions noted are these: read-out: KRAS WT FRET data IC50. It counts as biochemical. In a few lines:
as §2

For the next assay, the target named is NRAS G12C (Homo sapiens (Human), UniProt P01111+P62937, G12C). The description is as above. It counts as biochemical. The conditions noted are these: read-out: NRAS G12C FRET data IC50. A digest of the protocol:
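First, 25 μM Cyclophilin A, 12.5 nM His6-Ras-GMPPNP and 50 nM GST-BRAF RBD are mixed with diluted compound at pH 7.3. Next, 3 h at 25° C. Then 10 nM anti-His Eu-W1024 plus 50 nM anti-GST allophycocyanin for 1.5 h before TR-FRET reading.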

The target of assay [3] is K-Ras G12C(GMP-PNP) binding to BRAF RBD (Homo sapiens (Human), UniProt P01116+P62937, G12C). As to the kind of experiment: Disruption of BRAF RBD interaction with K-Ras (FRET / MOA assay), K-Ras G12C. It counts as biochemical. As to conditions: read-out: KRAS G12C FRET IC50. In a few lines: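 Incubation of compound (up to 30 μM final, 3-fold steps) with GMP-PNP-type loaded Ras isoform, cyclophilin A and BRAF RBD ran 3 h at 25° C, followed by 1.5 h with detection antibodies. Disruption appears as a reduced TR-FRET ratio compared with DMSO controls, expressed as IC50.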
K-Ras G12C(GMP-PNP) binding to BRAF RBD, sequence (P01116 other isoform, or with tags, fused parts or gaps G12C): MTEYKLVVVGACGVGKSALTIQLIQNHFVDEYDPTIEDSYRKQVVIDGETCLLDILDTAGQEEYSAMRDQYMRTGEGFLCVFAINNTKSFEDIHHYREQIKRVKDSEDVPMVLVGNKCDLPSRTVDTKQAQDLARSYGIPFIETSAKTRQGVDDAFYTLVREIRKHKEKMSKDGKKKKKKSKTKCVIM
K-Ras G12C(GMP-PNP) binding to BRAF RBD, sequence (P62937 whole entry, canonical isoform): as the sequence (P62937 whole entry) above

pIC50: −log10 of the molar value. Read-outs that look alike come from different tables or passages of the source.

KRAS G12S, sequence (P01116 other isoform, or with tags, fused parts or gaps G12S): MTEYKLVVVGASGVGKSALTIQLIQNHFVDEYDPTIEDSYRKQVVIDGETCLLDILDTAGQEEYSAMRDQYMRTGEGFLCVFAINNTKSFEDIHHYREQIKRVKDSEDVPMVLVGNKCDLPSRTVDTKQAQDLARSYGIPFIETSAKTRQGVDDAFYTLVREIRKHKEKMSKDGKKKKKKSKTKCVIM
KRAS G12S, sequence (P62937 whole entry): as the sequence (P62937 whole entry) above
KRAS G12V, sequence (P01116 other isoform, or with tags, fused parts or gaps G12V): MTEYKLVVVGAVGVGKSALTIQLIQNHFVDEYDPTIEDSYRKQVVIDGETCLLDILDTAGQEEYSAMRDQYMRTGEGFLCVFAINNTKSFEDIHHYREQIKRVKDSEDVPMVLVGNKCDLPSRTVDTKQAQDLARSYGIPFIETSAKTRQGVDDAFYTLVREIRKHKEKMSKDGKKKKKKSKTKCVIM
KRAS G12V, sequence (P62937 whole entry): as the sequence (P62937 whole entry) above
KRAS G13C, sequence (P01116 other isoform, or with tags, fused parts or gaps G13C): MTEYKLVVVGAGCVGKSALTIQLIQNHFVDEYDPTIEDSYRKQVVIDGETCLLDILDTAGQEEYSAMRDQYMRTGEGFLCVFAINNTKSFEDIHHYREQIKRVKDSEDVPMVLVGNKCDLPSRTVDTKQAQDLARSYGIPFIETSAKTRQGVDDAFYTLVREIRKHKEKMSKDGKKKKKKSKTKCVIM
KRAS G13C, sequence (P62937 whole entry): as the sequence (P62937 whole entry) above
NRAS G12C, sequence (P01111 whole entry G12C): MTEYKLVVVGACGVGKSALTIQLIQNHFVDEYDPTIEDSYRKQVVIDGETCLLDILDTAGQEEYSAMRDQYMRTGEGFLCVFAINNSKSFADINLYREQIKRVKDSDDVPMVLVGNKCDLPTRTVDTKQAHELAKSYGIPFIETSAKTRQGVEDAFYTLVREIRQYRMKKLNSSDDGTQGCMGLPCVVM
NRAS G12C, sequence (P62937 whole entry): as the sequence (P62937 whole entry) above
KRAS G12D, sequence (P01116 other isoform, or with tags, fused parts or gaps G12D): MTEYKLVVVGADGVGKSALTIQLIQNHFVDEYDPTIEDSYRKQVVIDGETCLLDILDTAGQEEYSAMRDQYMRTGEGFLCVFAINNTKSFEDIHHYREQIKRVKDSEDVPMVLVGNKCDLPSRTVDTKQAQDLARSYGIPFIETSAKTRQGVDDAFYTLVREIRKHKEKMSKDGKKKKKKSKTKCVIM
KRAS G12D, sequence (P62937 whole entry): as the sequence (P62937 whole entry) above
KRAS WT, sequence (P01116 other isoform, or with tags, fused parts or gaps): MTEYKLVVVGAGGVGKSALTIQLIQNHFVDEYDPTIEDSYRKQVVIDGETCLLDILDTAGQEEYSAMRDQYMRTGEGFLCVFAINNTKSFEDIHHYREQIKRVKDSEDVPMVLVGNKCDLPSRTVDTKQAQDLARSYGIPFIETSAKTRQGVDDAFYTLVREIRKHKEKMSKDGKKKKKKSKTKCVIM
KRAS WT, sequence (P62937 whole entry): as the sequence (P62937 whole entry) above

The pIC50 is the negative decadic logarithm of the IC50, by convention in mol/L. In the case of `CCn1c(-c2cccnc2[C@H](C)OC)c2c3cc(ccc31)-c1csc(n1)C[C@H](NC(=O)[C@H](C(C)C)N(C)C(=O)N1CCN(C(=O)[C@@H]3CCCN3C)CC1)C(=O)N1CCC[C@H](N1)C(=O)OCC(C)(C)C2` [Compound A596], the pIC50 is 7.00 to 8.00 in [1] (K-Ras G12C, 5-day treatment); 6.00 to 7.00 in assay [2] (K-Ras G12V, 5-day treatment); 7.00 to 8.00 on KRAS G12C; 6.00 to 7.00 on KRAS G12D; 6.00 to 7.00 at KRAS G12S; 6.00 to 7.00 at KRAS G12V. Besides, the pIC50 was 6.00 to 7.00 on KRAS G13C; 6.00 to 7.00 on KRAS G13D; 7.00 to 8.00 at KRAS WT; 7.00 to 8.00 on NRAS G12C; 7.00 to 8.00 in [3].
As to `CCn1c(-c2cccnc2[C@H](C)OC)c2c3cc(ccc31)-c1csc(n1)C[C@H](NC(=O)[C@H](C(C)C)N(C)C(=O)N1CC(O)(CN(C)C)C1)C(=O)N1CCC[C@H](N1)C(=O)OCC(C)(C)C2` [Compound A597], the pIC50 in assay [1] (K-Ras G12C, 5-day treatment) is 7.00 to 8.00; in assay [2] (K-Ras G12V, 5-day treatment), 6.00 to 7.00; at KRAS G12C, 6.00 to 7.00; at KRAS G12D, 5.00 to 6.00; on KRAS G12S, 6.00 to 7.00; at KRAS G12V, 6.00 to 7.00. For the same compound, the pIC50 is 6.00 to 7.00 at KRAS G13C; 6.00 to 7.00 at KRAS G13D; 6.00 to 7.00 on KRAS WT; 6.00 to 7.00 at NRAS G12C; 7.00 to 8.00 in assay [3].
Turning to `CCn1c(-c2cccnc2[C@H](C)OC)c2c3cc(ccc31)-c1csc(n1)[C@@H](OC)[C@H](NC(=O)[C@H](C(C)C)N(C)C(=O)N(C)C)C(=O)N1CCC[C@H](N1)C(=O)OCC(C)(C)C2` [Compound A598, (2S)—N-((6^3S,3S,4S,Z)-1^1-ethyl-3-methoxy-1^2-(2-((S)-1-methoxyethyl)pyridin-3-yl)-10,10-dimethyl-5,7-dioxo-6^1,6^2,6^3,6^4,6^5,6^6-hexahydro-1^1H-8-oxa-2 (4,2)-thiazola-1 (5,3)-indola-6 (1,3)-pyridazinacycloundecaphane-4-yl)-3-methyl-2-(1,3,3-trimethylureido) butanamide], the pIC50 is 6.00 to 7.00 in assay [1]; 6.00 to 7.00 in assay [2]; 7.00 to 8.00 at KRAS G12C; 5.00 to 6.00 on KRAS G12D; 6.00 to 7.00 at KRAS G12S; 6.00 to 7.00 at KRAS G12V. Besides, the pIC50 on KRAS G13C is 6.00 to 7.00; at KRAS G13D, 6.00 to 7.00; at KRAS WT, 6.00 to 7.00; on NRAS G12C, 7.00 to 8.00; in assay [3], 7.00 to 8.00.
As for `CCn1c(-c2cccnc2[C@H](C)OC)c2c3cc(ccc31)-c1csc(n1)C[C@H](NC(=O)[C@H](C(C)C)N(C)C(=O)N1CC3(CCN(C)C3)C1)C(=O)N1CCC[C@H](N1)C(=O)OCC(C)(C)C2` [Compound A602], the pIC50 is 6.00 to 7.00 in [1] (K-Ras G12C, 5-day treatment); 6.00 to 7.00 in assay [2] (K-Ras G12V, 5-day treatment); 6.00 to 7.00 at KRAS G12C; 5.00 to 6.00 at KRAS G12D; 6.00 to 7.00 at KRAS G12S; 6.00 to 7.00 on KRAS G12V. Besides, the pIC50 at KRAS G13C was 6.00 to 7.00; at KRAS G13D, 6.00 to 7.00; on KRAS WT, 6.00 to 7.00; at NRAS G12C, 6.00 to 7.00; in assay [3] it was 7.00 to 8.00.
